In ChEMBL document CHEMBL4251602, “Synthesis and biological evaluation of novel 1-(aryl-aldehyde-oxime)uracil derivatives as a new class of thymidine phosphorylase inhibitors” (Eur J Med Chem, 2018):

B1: Thymidine phosphorylase (Homo sapiens), P19971 (protein)
chain: MAALMTPGTGAPPAPGDFSGEGSQGLPDPSPEPKQLPELIRMKRDGGRLSEADIRGFVAAVVNGSAQGAQIGAMLMAIRLRGMDLEETSVLTQALAQSGQQLEWPEAWRQQLVDKHSTGGVGDKVSLVLAPALAACGCKVPMISGRGLGHTGGTLDKLESIPGFNVIQSPEQMQVLLDQAGCCIVGQSEQLVPADGILYAARDVTATVDSLPLITASILSKKLVEGLSALVVDVKFGGAAVFPNQEQARELAKTLVGVGASLGLRVAAALTAMDKPLGRCVGHALEVEEALLCMDGAGPPDLRDLVTTLGGALLWLSGHAGTQAQGAARVAAALDDGSALGRFERMLAAQGVDPGLARALCSGSPAERRQLLPRAREQEELLAPADGTVELVRALPLALVLHELGAGRSRAGEPLRLGVGAELLVDVGQRLRRGTPWLRVHRDGPALSGPQSRALQEALVLSDRAPFAAPSPFAELVLPPQQ

Tests used:
Thymidine phosphorylase = molecular target: T1, Thymidine phosphorylase (Homo sapiens, UniProt P19971)
T1 sequence (P19971 whole entry): B1 chain

[1] = Stability in bovine serum assessed as parent pure compound remaining at 1 mg measured within 10 days by HPLC analysis; format: ADME, cell-free, Bos taurus; details: cattle, 240 h
[2] = Stability in water assessed as parent pure compound remaining at 1 mg measured within 10 days by HPLC analysis (reference value: 95%); format: physicochemical; details: read-out: Stability
NIH3T3 [3] = experiment: Cytotoxicity against mouse 3T3 cells at 50 uM by SRB assay; format: cell-based; details: nih3t3, 50 µM
NIH3T3 [4] = experiment: Cytotoxicity against mouse 3T3 cells by SRB assay; format: functional, cell-based
[5] = substrate: Cc1cc(=O)[nH]c(=O)n1/C(=N\O)c1ccc(Cl)c(Cl)c1; details: Homo sapiens

Row | Molecule | IC50 (Thymidine phosphorylase) [µM] | other results
1 | COc1ccc(/C(=N/O)n2c(C)cc(=O)[nH]c2=O)cc1 | 16.5 | –
2 | COc1cccc(/C(=N\O)n2cc(I)c(=O)[nH]c2=O)c1 | 33.4 | –
3 | Cc1ccc(/C(=N\O)n2cc(I)c(=O)[nH]c2=O)cc1 | 22.5 | –
4 | Cc1cc(=O)[nH]c(=O)n1/C(=N\O)c1ccccc1F | 49.3 | –
5 | Cc1cc(=O)[nH]c(=O)n1/C(=N\O)c1ccc(Cl)c(Cl)c1 | 0.12 | Stability [1]: Stable; remaining at 240 h [2]: 87%; Activity (NIH3T3 [3]): Non-Toxic
6 | COc1ccc(/C(=N\O)n2cc(I)c(=O)[nH]c2=O)cc1 | 25.2 | –
7 | Cc1cc(=O)[nH]c(=O)n1/C(=N\O)c1ccc(Cl)cc1 | 1.4 | Activity (NIH3T3 [3]): Non-Toxic
8 | O=c1[nH]c(=O)n(/C(=N/O)c2ccccc2F)cc1I | 53.7 | –
9 | Cc1cc(=O)[nH]c(=O)n1C(=O)c1ccccc1 | 92.4 | –
10 | O=c1[nH]c(=O)n(/C(=N/O)c2ccccc2)cc1I | 37.3 | –
11 | Cc1ccc(/C(=N/O)n2c(C)cc(=O)[nH]c2=O)cc1 | 7.2 | Activity (NIH3T3 [3]): Non-Toxic
12 | Cc1cc(=O)[nH]c(=O)n1/C(=N\O)c1cccc(F)c1 | 41.2 | –
13 | O=c1[nH]c(=O)n(/C(=N/O)c2ccc(Cl)cc2)cc1I | 15.6 | –
14 | Cc1cc(=O)[nH]c(=O)n1/C(=N\O)c1cccs1 | 39.9 | –
15 | Cc1cc(=O)[nH]c(=O)n1/C(=N\O)c1ccccc1 | 21.4 | –
16 | CO/N=C(\c1ccccc1)n1c(C)cc(=O)[nH]c1=O | 85.6 | –
17 | Cc1cccc(/C(=N/O)n2c(C)cc(=O)[nH]c2=O)c1 | 15.9 | –
18 | C[C@@H]1C[C@@H]([C@H](O)CC2CC(=O)NC(=O)C2)C(=O)[C@@H](C)C1 [CYCLOHEXIMIDE] | – | IC50 (NIH3T3 [4]): 300 nM
19 | CCc1ccc(/C(=N/O)n2c(C)cc(=O)[nH]c2=O)cc1 | 3.4 | Activity (NIH3T3 [3]): Non-Toxic
20 | O=c1[nH]c(=O)n(/C(=N/O)c2ccc(F)cc2)cc1I | 41.3 | –
21 | Cc1cc(=O)[nH]c(=O)n1/C(=N\O)c1ccc(F)cc1 | 44.1 | –
22 | COc1cccc(/C(=N/O)n2c(C)cc(=O)[nH]c2=O)c1 | 25.1 | –
23 | Cc1cc(=O)[nH]c(=O)n1/C(=N\O)c1ccc(Br)cc1 | 2.7 | –
24 | CCc1ccc(/C(=N\O)n2cc(I)c(=O)[nH]c2=O)cc1 | 10.7 | –
25 | B1 | – | Km [5]: 2000 µM
